In patent US20240132484A1, “BROAD SPECTRUM ANTIVIRAL COMPOUNDS TARGETING THE SKI COMPLEX” (priority 2020, published 2024):

Tested on: Influenza virus
Assay: organism not typed
Type: cell-based, influenza A virus
Settings: for Flu titer (pfu/ml): A549 cells; for Flu titer (pfu/ml) / Influenza virus titer, 10 μM / Influenza virus titer, 50 μM: plaque assay; for Avg PFU/ml: average of first and second experiment; for Influenza virus titer, 10 μM / Influenza virus titer, 50 μM: upper part of table (FIG. 5 data); for Avg: 1-24-20

Row | SMILES | Flu titer (pfu/ml) (1 μM compound) | Flu titer (pfu/ml) (10 μM compound) | Flu titer (pfu/ml) (50 μM compound) | first experiment (10 μM screen) | second experiment (10 μM screen) | Avg PFU/ml (10 μM screen) | Influenza virus titer, 10 μM | first experiment PFU/ml (50 μM screen) | second experiment PFU/ml (50 μM screen) | Avg PFU/ml (50 μM screen) | Influenza virus titer, 50 μM | Avg (10 μM screen) | Avg (50 μM screen)
1 | OCCN(Cc1nc(Cc2cccc(C(F)(F)F)c2)no1)CC12CC3CC(CC(C3)C1)C2 [Compound 61121342, 2-[(1-adamantylmethyl)({3-[3-(trifluoromethyl)benzyl]-1,2,4-oxadiazol-5-yl}methyl)amino]ethanol] | 9000 pfu/ml | 130000 pfu/ml | 50000 pfu/ml | – | – | – | – | – | – | – | – | – | –
2 | CCc1ccc(OC(C)c2nnc(SCC(=O)Nc3nc(-c4ccccc4)c(C)s3)n2C)cc1 (centres unmarked) [Compound 7493781, 2-({5-[1-(4-ethylphenoxy)ethyl]-4-methyl-4H-1,2,4-triazol-3-yl}thio)-N-(5-methyl-4-phenyl-1,3-thiazol-2-yl)acetamide] | 75000 pfu/ml | 98000 pfu/ml | 53000 pfu/ml | – | – | – | – | – | – | – | – | – | –
3 | COc1ccc(CNC2CCCCCCC2)c(OCC(O)CN2CCN(C)CC2)c1 (centres unmarked) [Compound 18-8] | – | – | – | 3000 PFU/ml | 700 PFU/ml | 1850 PFU/ml | 3000 PFU/virus/ml | 3800 PFU/ml | 200 PFU/ml | 2000 PFU/ml | 38000 PFU/virus/ml | – | –
4 | CN(CC(O)COc1ccccc1CNCCN1CCCC1)C1CCCCC1 (centres unmarked) [Compound 74597070, 1-[cyclohexyl(methyl)amino]-3-[2-({[2-(1-pyrrolidinyl)ethyl]amino}methyl)phenoxy]-2-propanol] | 70000 pfu/ml | 55000 pfu/ml | 24000 pfu/ml | – | – | – | – | – | – | – | – | – | –
5 | COc1ccc(CNCCCn2cccn2)c(OCC(O)CN2CCN(C)CC2)c1 (centres unmarked) [Compound 18-13] | – | – | – | 40000 PFU/ml | 20000 PFU/ml | 30000 PFU/ml | 40000 PFU/virus/ml | 80000 PFU/ml | 110000 PFU/ml | 95000 PFU/ml | 80000 PFU/virus/ml | – | –
6 | Cc1ccc(-c2cc3c(c(OCC4CCCCO4)c2)OCCN(C(=O)C2CC2)C3)s1 (centres unmarked) [Compound 43261887, 4-(cyclopropylcarbonyl)-7-(5-methyl-2-thienyl)-9-(tetrahydro-2H-pyran-2-ylmethoxy)-2,3,4,5-tetrahydro-1,4-benzoxazepine] | 60000 pfu/ml | 170000 pfu/ml | 30000 pfu/ml | – | – | – | – | – | – | – | – | – | –
7 | COc1ccc(CNC2CCCC2)c(OCC(O)CN2CCN(C)CC2)c1 (centres unmarked) [Compound 18-1] | – | – | – | 60000 PFU/ml | 19000 PFU/ml | 39500 PFU/ml | 60000 PFU/virus/ml | 2200 PFU/ml | 1400 PFU/ml | 1800 PFU/ml | 2200 PFU/virus/ml | – | –
8 | CCN1CCN(CC(O)COc2cccc(CN(C)Cc3cc(C)no3)c2)CC1 (centres unmarked) [Compound 77921510, 1-(4-ethyl-1-piperazinyl)-3-[3-({methyl[(3-methyl-5-isoxazolyl)methyl]amino}methyl)phenoxy]-2-propanol] | 72000 pfu/ml | 90000 pfu/ml | 26000 pfu/ml | – | – | – | – | – | – | – | – | – | –
9 | COc1ccc(CNC2Cc3ccccc3C2)c(OCC(O)CN2CCN(C)CC2)c1 (centres unmarked) [Compound 18-3] | – | – | – | 12000 PFU/ml | 1000 PFU/ml | 6500 PFU/ml | 12000 PFU/virus/ml | 1100 PFU/ml | 1700 PFU/ml | 1400 PFU/ml | 1100 PFU/virus/ml | – | –
10 | COc1ccc(CNCCCn2ccnc2C)c(OCC(O)CN2CCN(C)CC2)c1 (centres unmarked) [Compound 18-7] | – | – | – | 240000 PFU/ml | 44000 PFU/ml | 142000 PFU/ml | 240000 PFU/virus/ml | 110000 PFU/ml | 31000 PFU/ml | 70500 PFU/ml | 110000 PFU/virus/ml | – | –
11 | CCN1CCN(CC(O)COc2cccc(CN(C)Cc3ccccn3)c2)CC1 (centres unmarked) [Compound 10306628, 1-(4-ethyl-1-piperazinyl)-3-(3-{[methyl(2-pyridinylmethyl)amino]methyl}phenoxy)-2-propanol] | 70000 pfu/ml | 85000 pfu/ml | 42000 pfu/ml | – | – | – | – | – | – | – | – | – | –
12 | COc1ccc(CNCCc2ccccc2F)c(OCC(O)CN2CCN(C)CC2)c1 (centres unmarked) [Compound 18, 1-[2-({[2-(2-fluorophenyl)ethyl]amino}methyl)-5-methoxyphenoxy]-3-(4-methyl-1-piperazinyl)-2-propanol] | – | – | – | 2000 PFU/ml | 1100 PFU/ml | 1550 PFU/ml | – | 1400 PFU/ml | 300 PFU/ml | 850 PFU/ml | – | 1150 PFU/ml | 400 PFU/ml
13 | OC(COc1ccccc1CNCc1cn2c(n1)SCC2)CN1CCSCC1 (centres unmarked) [Compound 32841411, 1-(2-{[(2,3-dihydroimidazo[2,1-b][1,3]thiazol-6-ylmethyl)amino]methyl}phenoxy)-3-(4-thiomorpholinyl)-2-propanol] | 170000 pfu/ml | 80000 pfu/ml | 31000 pfu/ml | – | – | – | – | – | – | – | – | – | –
14 | COc1cc(CNCCC2CCN(C)CC2)ccc1OCC(O)CN(C)C1CCCCC1 (centres unmarked) [Compound 28236358, 1-[cyclohexyl(methyl)amino]-3-[2-methoxy-4-({[2-(1-methyl-4-piperidinyl)ethyl]amino}methyl)phenoxy]-2-propanol] | 70000 pfu/ml | 70000 pfu/ml | 39000 pfu/ml | – | – | – | – | – | – | – | – | – | –
15 | CC#CC(=O)NCc1nc(-c2ccccc2NC(=O)CCOc2ccccc2)oc1C [Compound 17295424, N-[(5-methyl-2-{2-[(3-phenoxypropanoyl)amino]phenyl}-1,3-oxazol-4-yl)methyl]-2-butynamide] | 44000 pfu/ml | 68000 pfu/ml | 64000 pfu/ml | – | – | – | – | – | – | – | – | – | –
16 | COc1ccc(CNCCc2ccccc2Cl)c(OCC(O)CN2CCN(C)CC2)c1 (centres unmarked) [Compound 18-4] | – | – | – | 7000 PFU/ml | 800 PFU/ml | 3900 PFU/ml | 7000 PFU/virus/ml | 1100 PFU/ml | 300 PFU/ml | 700 PFU/ml | 1100 PFU/virus/ml | – | –
17 | COc1ccc(OC)c(Cc2nnc(CCC(=O)NC3CC(C)(C)CC(C)(C)C3)o2)c1 [Compound 35434810, 3-[5-(2,5-dimethoxybenzyl)-1,3,4-oxadiazol-2-yl]-N-(3,3,5,5-tetramethylcyclohexyl)propanamide] | 80000 pfu/ml | 80000 pfu/ml | 130000 pfu/ml | – | – | – | – | – | – | – | – | – | –
18 | COc1ccc(CNCCCSC)c(OCC(O)CN2CCN(C)CC2)c1 (centres unmarked) [Compound 18-16] | – | – | – | 210000 PFU/ml | 18000 PFU/ml | 114000 PFU/ml | 21000 PFU/virus/ml | 30000 PFU/ml | 2300 PFU/ml | 16150 PFU/ml | 90000 PFU/virus/ml | – | –
19 | COc1ccc(NC(=O)c2ccccc2OCC(=O)NC2CCCCC2)c([N+](=O)[O-])c1 [Compound 7900806, 2-[2-(cyclohexylamino)-2-oxoethoxy]-N-(4-methoxy-2-nitrophenyl)benzamide] | 77000 pfu/ml | 60000 pfu/ml | 54000 pfu/ml | – | – | – | – | – | – | – | – | – | –
20 | COc1ccc(CNCC(F)(F)F)c(OCC(O)CN2CCN(C)CC2)c1 (centres unmarked) [Compound 18-12] | – | – | – | 30000 PFU/ml | 28000 PFU/ml | 29000 PFU/ml | 30000 PFU/virus/ml | 90000 PFU/ml | 26000 PFU/ml | 58000 PFU/ml | 90000 PFU/virus/ml | – | –
21 | COCCCNCc1ccc(OC)cc1OCC(O)CN1CCN(C)CC1 (centres unmarked) [Compound 18-11] | – | – | – | 100000 PFU/ml | 39000 PFU/ml | 69500 PFU/ml | 100000 PFU/virus/ml | 160000 PFU/ml | 31000 PFU/ml | 95500 PFU/ml | 160000 PFU/virus/ml | – | –
